Earlier results as cited in patent publication US10888524B2, “Immediate release tablet of dofetilide” (Enaltec Pharma Research Pvt. Ltd., priority 2018, dated 2021).

Key:
[1] = tested on: patients with severe left ventricular dysfunction; settings: unlike class I agents
[2] = tested on: patients with atrial as well as ventricular arrhythmias

CN(CCOc1ccc(NS(C)(=O)=O)cc1)CCc1ccc(NS(C)(=O)=O)cc1 [Dofetilide, N-[4-[2-[methyl[2-[4-[(methylsulfonyl)amino]phenoxy]ethyl]amino]ethyl]phenyl]-methane sulfonamide]
Safety in patients with congestive heart failure [1]: safe
Efficacy in treating arrhythmias [2]: effective
